Our source for the MIC values is PMC2888690 (Journal of combinatorial chemistry, 2009).

“And” between values parts separate entries of the source, which are not always exact repeats. Equal values may be shown once. Read-outs that look alike come from different tables or passages of the source. Where only a bound is given, the exact number is not on record here.

For test [1], the system named is Bacillus anthracis Sterne. As to the kind of experiment: microbe, parasite or virus in culture. The test is classed as cell-based.
For test [2], the system named is Bacillus anthracis Sterne. As to the kind of experiment: microbe, parasite or virus in culture. The test is classed as cell-based. The source holds these as a separate data set.

`O=C(Nc1ccc(NS(=O)(=O)c2ccc(Cl)c(Cl)c2)cc1)Nc1ccc([N+](=O)[O-])cc1` [5{1}, 3,4-Dichloro-(N-(4-(((4-nitrophenyl)amino)carbonyl)aminophenyl))benzenesulfonamide]: the MIC in test [1] (5 h, read-out: LB MIC) is 2.8 µM and 1.3 µg/mL; in test [1] (read-out: LB B.a. MIC), 2.8 µM and 1.3 µg/mL; in test [2] (5 h, read-out: MH MIC), 3.8 µM and 1.8 µg/mL; in test [2] (read-out: MH B.a. MIC), 3.8 µM and 1.8 µg/mL.

Take `O=C(Nc1ccc(NS(=O)(=O)c2ccc(Cl)c(Cl)c2)cc1)Nc1cccc([N+](=O)[O-])c1` [5{2}, 3,4-Dichloro-(N-(4-(((3-nitrophenyl)amino)carbonyl)aminophenyl))benzenesulfonamide]: the MIC in test [1] (5 h, read-out: LB MIC) is > 240 µM and > 115 µg/mL; in test [1] (read-out: LB B.a. MIC), > 240 µM and > 115 µg/mL.

For `O=C(Nc1ccc(NS(=O)(=O)c2ccc(Cl)c(Cl)c2)cc1)Nc1ccccc1[N+](=O)[O-]` [5{3}, 3,4-Dichloro-(N-(4-(((2-nitrophenyl)amino)carbonyl)aminophenyl))benzenesulfonamide], the MIC was > 240 µM and > 115 µg/mL in test [1] (5 h, read-out: LB MIC); > 240 µM and > 115 µg/mL in test [1] (read-out: LB B.a. MIC).

`Nc1ccc(S(=O)(=O)Nc2ccc(NC(=O)Nc3ccccc3[N+](=O)[O-])cc2)cc1` [compound 9, 4-Amino-(N-(4-(((2-nitrophenyl)amino)carbonyl)aminophenyl))benzenesulfonamide]: in test [1] (5 h, read-out: LB MIC), the MIC was 120 µM and 53 µg/mL.
